{
  "source": "paper PMC4473678",
  "about": "“Swedish mutant APP-based BACE1 binding site peptide reduces APP β-cleavage and cerebral Aβ levels in Alzheimer’s mice” (Scientific Reports, 2015)",
  "key": {"5XFAD mice [1]": {"tested_on": "5XFAD mice", "assay": "Radial arm water maze (RAWM), 5XFAD mice", "format": "in vivo, mouse", "conditions": "100 nmol/kg i.p. daily, 8 weeks, n = 10 per treatment, 5 female/5 male, listed as TAT-APPsweBBP", "method": "(§1) Transgenic AD mice [5XFAD; B6SJL-Tg(APPSwFlLon,PSEN1*M146L*L286V) 6799Vas/Mmjax] at 2.5 months of age were obtained from the Jackson Laboratory (Bar Harbor, ME) and housed and maintained in the Animal Facility of College of Medicine at University of South Florida (USF). The mice at 3.5 months of age were treated with TAT-APPsweBBP, TAT peptide (100 nmol/kg in 100 μL PBS) or PBS (100 μL) daily by intraperitioneal injection (i.p.) for eight consecutive weeks. The mice were subjected to behavioral testing after 8-week treatment and then euthanized for immunohistochemical, WB and ELISA analyses. Animals were housed and maintained at USF and all experiments were in compliance with protocols approved by USF Institutional Animal Care and Use Committee. All methods were performed in accordance with relevant guidelines and regulations.\nSpatial learning and memory performance was tested for each mouse using the Two-day Radial Arm Water Maze (RAWM) test[49]. The RAWM was carried out in a 100-cm circular pool with six swim alleys radiating from a common circular swim area. An escape platform was placed near the end of one arm, which forces mice to use working memory to perform this task. On day 1, mice are trained for 15 trials (5 blocks, 3 trials per block), with trials alternating between visible and hidden platform. […] Cognitive ability was assessed as the number of entry-arm errors."}, "5XFAD mice [2]": {"tested_on": "5XFAD mice", "assay": "Cerebral Aβ ELISA, 5XFAD mice", "format": "in vivo, mouse", "conditions": "100 nmol/kg i.p. daily, 8 weeks, versus TAT or PBS, *P < 0.05, **P < 0.01, ***P < 0.005, listed as TAT-APPsweBBP", "method": "as §1, with “All methods were performed in accordance with relevant guidelines and regulations.” left out\n(§2) Mouse brains were homogenized in ice-cold lysis buffer for 30 s using a Minilys tissue homogenizer (Bertin Technologies, Montigny-le-Bretonneux, France) set at high speed, allowed to stand for 15 min at 4 °C, and centrifuged at 15000 rpm for 30 min. Soluble Aβ1−40/42 species and sAPPα were directly detected in cultured cell media or brain homogenates using the Aβ1−40/42 (Invitrogen) and sAPPα ELISA kits (IBL-America, Minneapolis, MN). Detergent-insoluble total […] species were detected in brain by extracting pellets in 5 M guanidine HCl buffer, followed by a 1:20 dilution in lysis buffer."}, "BACE1 in CHO/APPwt cells": {"tested_on": "BACE1 in CHO/APPwt cells", "assay": "IP/WB of BACE1 binding in CHO/APPwt cell lysates", "design": "species or system Chinese hamster", "conditions": "biotin-labeled peptide 20 μM, 30 min, anti-biotin IP, listed as TAT-APPsweBBP"}, "[3]": {"tested_on": "recombinant BACE1 protein", "assay": "Immunoprecipitation/WB of peptide-BACE1 binding, cell-free", "conditions": "10 μg biotin-labeled peptide with 10 μL recombinant BACE1 (1.0 U/mL), 4 h, 37 °C; anti-BACE1 IP/anti-biotin WB and reverse; listed as TAT-APPsweBBP", "method": "In order to confirm that APPsweBBP containing the β-cleavage site could bind to and be consequently proteolyzed by BACE1, 10 μg of biotin-labeled TAT-APPsweBBP was incubated with or without 10 μL of recombinant BACE1 protein (1.0 U/mL) in BACE1 reaction buffer for 4 h at 37 °C and then subjected to WB analysis as described previously. In addition, we performed immunoprecipitation (IP) and WB analyses of this mixture with anti-BACE1 and anti-biotin antibodies to confirm that TAT-APPsweBBP, but not TAT, specifically binds to BACE1."}, "CHO/APPwt cells": {"tested_on": "CHO/APPwt cells", "assay": "APP processing in CHO/APPwt cells (WB, ELISA)", "format": "cell-based, Chinese hamster", "conditions": "0 to 20 μM, 24 h", "method": "Chinese hamster ovary (CHO) cells engineered to express human APPwt (CHO/APPwt cells) or human APPswe (CHO/APPswe cells) were kindly provided by Dr. Stefanie Hahn and Dr. Sascha Weggen (University of Heinrich Heine, Dusseldorf, Germany). As described in our recent report, these cells were cultured in Dulbecco’s modified Eagle’s medium with 10% fetal bovine serum, 1 mM sodium pyruvate and 100 U/mL of penicillin/streptomycin.\nFollowing application of blocking buffer, these cells were stained with mouse anti-BACE1 and anti-biotin antibodies overnight at 4 °C for immunocytochemical analysis. In order to determine the inhibitory effects of TAT-APPsweBBP on BACE1-mediated APP β-cleavage and subsequent Aβ production, both CHO/APPwt and CHO/APPswe cells were plated in 24 well-plates (3×10^5/well) and treated with TAT-APPsweBBP at 0 to 20 μM for 24 h. The cultured media were collected for Aβ and sAPPα analysis by ELISA and WB. Cell lysates were also prepared for analysis of APP amyloidogenic processing by WB.\n(§3) WB analysis was performed as previously described. Briefly, the proteins from the various cell-free suspensions, cell lysates and brain homogenates were electrophoretically separated using 10% bicine/tris gel (8 M urea) for proteins less than 5 kD or 10% tricine/tris gels for larger proteins. Electrophoresed proteins were transferred to polyvinylidene difluoride membranes (Bio-Rad, Richmond, CA), washed and blocked for 2 h at room temperature in Tris-buffered saline containing 5% (w/v) nonfat dry milk (TBS/NFDM). After blocking, membranes were hybridized for 2 h with various primary antibodies, washed and incubated for 1 h with the appropriate HRP-conjugated secondary antibody in TBS/NFDM. Blots were developed using the luminol reagent (Thermo Fisher Scientific, Waltham, MA).\nas §2"}, "5XFAD mice [4]": {"tested_on": "5XFAD mice", "assay": "WB of APP processing products in brain homogenates, 5XFAD mice", "format": "in vivo, mouse", "conditions": "8 weeks", "method": "as §1, §3"}, "[5]": {"conditions": "*P < 0.05, **P < 0.01, three independent experiments, each triplicated"}, "[6]": {"conditions": "WB 6E10, listed as TAT-APPsweBBP"}},
  "note": "Entries after “also recorded” stand apart in the source; their conditions may differ.",
  "data": [
    {"sequence": "YGRKKRRQRRREISEVNLDAEFR [APPsweBBP conjugated with the membrane fusion fragment of HIV-1 Tat protein]", "values": [
      {"measurement": "RAWM entry-arm errors (learning and memory)", "setting": "5XFAD mice [1]", "result": "significantly fewer errors, compared to TAT- and PBS-treated mice; also recorded: enhanced cognitive ability, as evidenced by fewer errors"},
      {"measurement": "detergent-insoluble Aβ1−40/42 in brain", "setting": "5XFAD mice [2]", "result": "statistically significant decreases; also recorded: significantly reduced"},
      {"measurement": "detergent-soluble Aβ1−40/42 in brain", "setting": "5XFAD mice [2]", "result": "statistically significant decreases; also recorded: significantly reduced"},
      {"measurement": "binding to BACE1 in cell lysates", "setting": "BACE1 in CHO/APPwt cells", "result": "strongly and specifically binds to BACE1; also recorded: markedly bound to BACE1 compared to APPsweBBP"},
      {"measurement": "binding to BACE1 (co-immunoprecipitation)", "setting": "[3]", "result": "binds to BACE1 protein; also recorded: strongly binds to"},
      {"measurement": "holo APP expression by WB", "setting": "CHO/APPwt cells", "result": "leaving holo APP expression unaltered"},
      {"measurement": "sAPPα by WB", "setting": "CHO/APPwt cells", "result": "promoting"},
      {"measurement": "Aβ1−40/42 by ELISA", "setting": "CHO/APPwt cells; [5]", "result": "significantly decreased"},
      {"measurement": "sAPPα by ELISA", "setting": "CHO/APPwt cells; [5]", "result": "increased sAPPα levels in a dose-dependent manner"},
      {"measurement": "Aβ by WB", "setting": "CHO/APPwt cells; listed as TAT-APPsweBBP", "result": "markedly decreased Aβs; also recorded: markedly inhibited"},
      {"measurement": "α-CTF by WB", "setting": "CHO/APPwt cells; listed as TAT-APPsweBBP", "result": "increased α-CTF; also recorded: promoting α-CTF"},
      {"measurement": "total cerebral soluble Aβ (Aβs) by WB", "setting": "5XFAD mice [4]; [6]", "result": "much lower levels; also recorded: reduced total cerebral soluble Aβ"},
      {"measurement": "β-CTF by WB", "setting": "5XFAD mice [4]; [6]", "result": "much lower levels; also recorded: reduced"},
      {"measurement": "band density ratio of β-CTF to holo-APP", "setting": "5XFAD mice [4]; densitometry, versus TAT and PBS, **P < 0.01", "result": "significantly reduces the band density ratios of β-CTF to holo-APP, compared to TAT- and PBS-treatments (**P < 0.01)"},
      {"measurement": "total APP expression by WB", "setting": "5XFAD mice [4]; listed as TAT-APPsweBBP", "result": "without notable alteration on total APP expression; also recorded: without significantly altering total APP expression"}
    ]}
  ]
}
